Test results published in US20110319416A1, “Subunit Selective NMDA Receptor Antagonists For The Treatment Of Neurological Conditions” (EMORY UNIVERSITY, priority 2009, published 2011).
pIC50: −log10 of the molar value. Like-named read-outs stand apart in the source and are kept apart here.

Key:
Assay type in all cases: cell-based
NR1/NR2D = NR1/NR2D (Rattus norvegicus, UniProt P35439+Q62645); assay: Two electrode voltage clamp, Xenopus oocytes expressing recombinant NR1/NR2D; conditions: for remaining activity at 100 µM: read-out: 2D percent effect at the maximum tested concentration
Procedure: (§1) Quality of synthesized cRNA was assessed by gel electrophoresis, and quantity was estimated by spectroscopy and gel electrophoresis. Stage V and VI oocytes were surgically removed from the ovaries of large, well-fed and healthy Xenopus laevis anesthetized with 3-amino-benzoic acid ethyl ester (3 gm/l) as previously described. Clusters of isolated oocytes were incubated with 292 U/ml Worthington (Freehold, N.J.) type IV collagenase or 1.3 mg/ml collagenase (Life Technologies, Gaithersburg, MD; 17018-029) for 2 hr in Ca^2+-free solution comprised of (in mM) 115 NaCl, 2.5 KCl, and 10 HEPES, pH 7.5, with slow agitation to remove the follicular cell layer. Oocytes were then washed extensively in the same solution supplemented with 1.8 mM CaCl2 and maintained in Barth's solution comprised of (in mM): 88 NaCl, 1 KCl, 2.4 NaHCO3, 10 HEPES, 0.82 MgSO4, 0.33 Ca(NO3)2, and 0.91 CaCl2 and supplemented with 100 μg/m1 gentamycin, 10 μg/ml streptomycin, and 10 μg/ml penicillin. Oocytes were manually defolliculated and injected within 24 hrs of isolation with 3-5 ng of NR1 subunit cRNA and 7-10 ng of NR2 cRNA subunit in a 50 nl volume, or 5-10 ng of AMPA or kainate receptor cRNAs in a 50 nl volume, and incubated in Barth's solution at 18° C. for 1-7 d. Glass injection pipettes had tip sizes ranging from 10-20 microns, and were backfilled with mineral oil.
(§2) Two electrode voltage-clamp recordings were made 2-7 days post-injection as previously described. Oocytes were placed in a dual-track plexi-glass recording chamber with a single perfusion line that splits in a Y-configuration to perfuse two oocytes. Dual recordings were made at room temperature (23° C.) using two Warner OC725B two-electrode voltage clamp amplifiers, arranged as recommended by the manufacturer. Glass microelectrodes (1-10 Megaohms) were filled with 300 mM KCl (voltage electrode) or 3 M KCl (current electrode). The bath clamps communicated across silver chloride wires placed into each side of the recording chamber, both of which were assumed to be at a reference potential of 0 mV. Oocytes were perfused with a solution comprised of (in mM) 90 NaCl, 1 KCl, 10 HEPES, and 0.5 BaCl2; pH was adjusted by addition of 1-3 M NaOH of HC1 to 7.4. Oocytes were recorded under voltage clamp at −40 mV. […] In some experiments, 10 μM EDTA was obtained by adding a 1:1000 dilution of 10 mM EDTA, in order to chelate contaminant divalent ions such as Zn^2+. […] Concentration effect curves consisting of 4 to 8 concentrations were obtained in this manner. The baseline leak current at −40 mV was measured before and after recording, and the full recording linearly corrected for any change in leak current. […] Each experiment consisted of recordings from 3 to 10 oocytes obtained from a single frog. Results from multiple experiments were pooled, and the average percent responses at antagonist concentrations were fitted by the equation,
(§3) Percent Response=(100−minimum)/(1+([conc]/IC50)nH)+minimum

NR1/NR2C = NR1/NR2C (Rattus norvegicus, UniProt P35439+Q00961); assay: Two electrode voltage clamp, Xenopus oocytes expressing recombinant NR1/NR2C; conditions: for remaining activity at 100 µM: read-out: 2C percent effect at the maximum tested concentration
Procedure: as §1, §2, §3

NR1/NR2A = NR1/NR2A (Rattus norvegicus, UniProt P35439+Q00959); assay: Two electrode voltage clamp, Xenopus oocytes expressing recombinant NR1/NR2A; conditions: read-out: 2A percent effect at the maximum tested concentration
Procedure: as §1, §2, §3

NR1/NR2B = NR1/NR2B (Rattus norvegicus, UniProt P35439+Q00960); assay: Two electrode voltage clamp, Xenopus oocytes expressing recombinant NR1/NR2B
Procedure: as §1, §2, §3

[1] = logistic fit, minimum forced to 0, read-out: 2D IC50
[2] = logistic fit, minimum forced to 0, read-out: 2C IC50
[3] = at 100 μM, read-out: 2B percent effect at the maximum tested concentration
[4] = read-out: 2B percent effect at the maximum tested concentration

NR1/NR2A, sequence (Q00959 23-1464, other chains not shown): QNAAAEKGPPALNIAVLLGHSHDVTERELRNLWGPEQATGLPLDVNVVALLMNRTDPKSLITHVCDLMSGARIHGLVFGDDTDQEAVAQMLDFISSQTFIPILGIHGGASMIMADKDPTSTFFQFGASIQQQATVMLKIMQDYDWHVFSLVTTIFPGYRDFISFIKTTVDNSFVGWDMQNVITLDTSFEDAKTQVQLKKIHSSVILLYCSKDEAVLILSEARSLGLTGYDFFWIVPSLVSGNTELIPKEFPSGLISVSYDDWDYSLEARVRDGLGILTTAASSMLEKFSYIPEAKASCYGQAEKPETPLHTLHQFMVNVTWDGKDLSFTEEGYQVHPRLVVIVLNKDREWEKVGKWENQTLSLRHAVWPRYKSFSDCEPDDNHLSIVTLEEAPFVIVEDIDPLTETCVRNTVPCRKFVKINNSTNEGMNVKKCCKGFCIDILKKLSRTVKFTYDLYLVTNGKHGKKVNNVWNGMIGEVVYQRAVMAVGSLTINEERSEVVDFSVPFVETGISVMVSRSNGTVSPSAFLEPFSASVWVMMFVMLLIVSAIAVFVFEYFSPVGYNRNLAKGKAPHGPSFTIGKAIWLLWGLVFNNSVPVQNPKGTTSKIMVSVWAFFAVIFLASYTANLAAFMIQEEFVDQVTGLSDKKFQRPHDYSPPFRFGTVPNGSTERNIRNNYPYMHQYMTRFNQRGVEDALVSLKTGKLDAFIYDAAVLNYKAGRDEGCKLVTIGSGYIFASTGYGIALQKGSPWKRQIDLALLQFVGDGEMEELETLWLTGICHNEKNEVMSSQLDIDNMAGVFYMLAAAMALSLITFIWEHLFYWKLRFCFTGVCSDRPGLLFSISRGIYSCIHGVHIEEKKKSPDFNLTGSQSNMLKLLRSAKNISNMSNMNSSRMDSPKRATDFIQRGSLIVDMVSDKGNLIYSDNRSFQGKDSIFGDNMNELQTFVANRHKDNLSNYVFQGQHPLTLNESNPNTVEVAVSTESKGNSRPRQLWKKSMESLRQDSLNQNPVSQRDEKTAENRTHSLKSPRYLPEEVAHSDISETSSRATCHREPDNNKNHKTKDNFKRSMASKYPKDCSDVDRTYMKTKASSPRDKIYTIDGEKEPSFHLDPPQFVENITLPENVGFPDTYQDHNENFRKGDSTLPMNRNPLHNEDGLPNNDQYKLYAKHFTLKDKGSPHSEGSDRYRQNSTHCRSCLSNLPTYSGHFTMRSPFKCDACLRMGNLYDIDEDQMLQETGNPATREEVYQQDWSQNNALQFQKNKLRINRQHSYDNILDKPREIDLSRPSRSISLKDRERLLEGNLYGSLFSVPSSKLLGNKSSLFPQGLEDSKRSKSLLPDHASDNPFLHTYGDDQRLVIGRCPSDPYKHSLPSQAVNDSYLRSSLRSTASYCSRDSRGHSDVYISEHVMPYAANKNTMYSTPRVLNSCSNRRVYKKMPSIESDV
NR1/NR2C, sequence (Q00961 20-1237, other chains not shown): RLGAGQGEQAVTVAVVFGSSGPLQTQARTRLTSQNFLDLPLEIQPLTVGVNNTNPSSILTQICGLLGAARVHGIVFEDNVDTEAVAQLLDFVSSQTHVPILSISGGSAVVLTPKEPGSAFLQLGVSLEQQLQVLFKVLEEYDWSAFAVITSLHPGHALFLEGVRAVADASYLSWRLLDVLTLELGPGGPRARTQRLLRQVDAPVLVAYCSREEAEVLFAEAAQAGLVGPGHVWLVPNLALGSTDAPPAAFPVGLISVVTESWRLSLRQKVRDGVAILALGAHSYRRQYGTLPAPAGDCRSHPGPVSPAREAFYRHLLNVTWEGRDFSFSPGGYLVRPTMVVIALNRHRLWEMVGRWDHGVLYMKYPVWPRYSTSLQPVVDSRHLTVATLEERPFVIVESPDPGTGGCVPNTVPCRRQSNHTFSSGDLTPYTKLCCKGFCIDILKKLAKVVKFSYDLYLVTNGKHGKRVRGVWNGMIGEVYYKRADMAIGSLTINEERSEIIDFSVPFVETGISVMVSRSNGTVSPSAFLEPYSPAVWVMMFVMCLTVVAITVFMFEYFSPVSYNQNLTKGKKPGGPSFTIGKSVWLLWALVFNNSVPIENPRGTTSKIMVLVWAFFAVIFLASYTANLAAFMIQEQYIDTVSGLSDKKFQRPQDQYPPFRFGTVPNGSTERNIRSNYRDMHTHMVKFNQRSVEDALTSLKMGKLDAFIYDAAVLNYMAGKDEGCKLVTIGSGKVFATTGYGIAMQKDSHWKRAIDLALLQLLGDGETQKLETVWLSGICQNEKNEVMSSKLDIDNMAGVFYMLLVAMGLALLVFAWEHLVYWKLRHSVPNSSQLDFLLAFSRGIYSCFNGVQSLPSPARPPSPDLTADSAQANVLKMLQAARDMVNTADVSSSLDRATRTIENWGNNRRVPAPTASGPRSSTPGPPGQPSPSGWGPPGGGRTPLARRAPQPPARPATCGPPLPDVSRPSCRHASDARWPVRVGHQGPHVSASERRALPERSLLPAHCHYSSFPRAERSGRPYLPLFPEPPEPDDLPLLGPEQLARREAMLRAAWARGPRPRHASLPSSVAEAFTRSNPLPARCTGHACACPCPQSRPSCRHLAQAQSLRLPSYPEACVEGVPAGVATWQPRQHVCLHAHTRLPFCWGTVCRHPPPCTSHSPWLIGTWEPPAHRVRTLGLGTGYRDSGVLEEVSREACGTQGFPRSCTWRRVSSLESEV
NR1/NR2D, sequence (Q62645 28-1323, other chains not shown): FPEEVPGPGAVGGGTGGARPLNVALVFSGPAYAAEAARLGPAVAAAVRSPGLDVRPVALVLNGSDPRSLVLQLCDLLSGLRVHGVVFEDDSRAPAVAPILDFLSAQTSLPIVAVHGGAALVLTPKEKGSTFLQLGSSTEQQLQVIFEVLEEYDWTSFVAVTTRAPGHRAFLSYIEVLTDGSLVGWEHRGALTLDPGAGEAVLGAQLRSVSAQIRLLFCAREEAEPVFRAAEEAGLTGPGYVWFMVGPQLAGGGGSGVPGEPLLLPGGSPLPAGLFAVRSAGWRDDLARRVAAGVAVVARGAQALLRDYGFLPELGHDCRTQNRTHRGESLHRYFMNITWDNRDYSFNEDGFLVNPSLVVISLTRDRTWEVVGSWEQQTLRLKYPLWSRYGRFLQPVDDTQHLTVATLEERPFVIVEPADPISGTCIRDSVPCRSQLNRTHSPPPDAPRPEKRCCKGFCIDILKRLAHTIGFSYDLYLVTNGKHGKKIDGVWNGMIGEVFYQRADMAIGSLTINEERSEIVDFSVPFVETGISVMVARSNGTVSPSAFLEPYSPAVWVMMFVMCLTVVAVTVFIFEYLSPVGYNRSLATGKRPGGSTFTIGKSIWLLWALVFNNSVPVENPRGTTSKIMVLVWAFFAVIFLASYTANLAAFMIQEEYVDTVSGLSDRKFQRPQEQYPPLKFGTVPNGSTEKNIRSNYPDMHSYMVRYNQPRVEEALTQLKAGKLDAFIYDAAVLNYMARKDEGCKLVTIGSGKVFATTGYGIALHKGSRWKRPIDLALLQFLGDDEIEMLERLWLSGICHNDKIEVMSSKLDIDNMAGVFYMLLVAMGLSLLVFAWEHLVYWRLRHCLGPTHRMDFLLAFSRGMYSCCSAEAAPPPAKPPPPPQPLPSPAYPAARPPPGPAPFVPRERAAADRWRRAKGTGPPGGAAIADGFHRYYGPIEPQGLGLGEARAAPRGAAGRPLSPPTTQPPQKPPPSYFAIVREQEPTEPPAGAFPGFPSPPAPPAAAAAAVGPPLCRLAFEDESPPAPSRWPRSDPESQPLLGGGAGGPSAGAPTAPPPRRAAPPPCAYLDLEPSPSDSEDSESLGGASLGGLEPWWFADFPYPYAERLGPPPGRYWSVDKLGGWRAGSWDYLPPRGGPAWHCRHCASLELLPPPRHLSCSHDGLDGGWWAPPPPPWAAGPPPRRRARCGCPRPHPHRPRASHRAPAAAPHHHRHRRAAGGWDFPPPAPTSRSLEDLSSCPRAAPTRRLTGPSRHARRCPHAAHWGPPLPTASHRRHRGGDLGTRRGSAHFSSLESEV

SMILES | pIC50 (NR1/NR2D) | pIC50 (NR1/NR2C) | remaining activity at 100 µM (NR1/NR2A) | remaining activity at 100 µM (NR1/NR2A; at 100 μM) | remaining activity at 100 µM (NR1/NR2D) | remaining activity at 100 µM (NR1/NR2B; [3]) | remaining activity at 100 µM (NR1/NR2C) | also measured
CCN(CC)C(=S)Oc1ccc(C(=O)Nc2ccc3ccccc3c2)cc1 [1063-0] | – | – | – | – | – | – | – | pIC50 (NR1/NR2D; [1]): 4.04; pIC50 (NR1/NR2C; [2]): 3.61; remaining activity at 30 µM (NR1/NR2A; at 30 μM): 101%; remaining activity at 30 µM (NR1/NR2B; at 30 μM, read-out: 2B percent effect at the maximum tested concentration): 99%
CN(C)C(=O)Oc1ccc(C(=O)Nc2cccc3ccccc23)cc1 [1063-3] | 3.71 | 3.21 | 110% | – | – | – | – | pIC50 (NR1/NR2B): 2.84
O=C(Nc1cccc2ccccc12)c1ccc(OC(=O)N2CCCC2)cc1 [1063-6] | – | – | – | 87% | – | – | – | pIC50 (NR1/NR2D; [1]): 3.59; pIC50 (NR1/NR2C; [2]): 3.87; pIC50 (NR1/NR2B; logistic fit, minimum forced to 0, read-out: 2B IC50): 3.30
O=C(Nc1cccc2ccccc12)c1ccc(OC(=O)N2CCCCC2)cc1 [1063-7] | – | – | – | 135% | 84% | 98% | – | –
CCCCN(CCCC)C(=O)Oc1ccc(C(=O)Nc2cccc3ccccc23)cc1 [1063-8] | – | – | – | 135% | 87% | 88% | – | –
CCC(CC)C(=O)Oc1ccc(C(=O)Nc2cccc3ccccc23)cc1 [1063-9] | – | – | – | 111% | 86% | 98% | 94% | –
O=C(Nc1cccc2ccccc12)c1ccc(OC(=O)C2CC2)cc1 [1063-10] | – | – | – | 111% | 81% | 92% | 86% | –
CCN(CC)C(=O)Nc1ccc(C(=O)Nc2cccc3ccccc23)cc1 [1063-11] | – | – | – | 102% | – | 88% | – | pIC50 (NR1/NR2D; [1]): 3.28; pIC50 (NR1/NR2C; [2]): 3.16
CCN(CC)C(=S)Oc1ccc(C(=O)Nc2ccc(Cl)c3ccccc23)cc1 [1063-12] | – | – | – | 92% | – | 80% | – | pIC50 (NR1/NR2D; [1]): 4.00; pIC50 (NR1/NR2C; [2]): 4.60
CC(C)N(C(=O)Oc1ccc(C(=O)Oc2cccc3c(N)cccc23)cc1)C(C)C [1063-14] | – | – | – | 104% | 75% | 95% | 85% | –
CC(C)N(C(=O)Oc1ccc(C(=O)Nc2ccc3cc[nH]c3c2)cc1)C(C)C [1063-15] | 4.92 | 4.96 | 74% | – | – | – | – | pIC50 (NR1/NR2B): 4.36
CC(C)N(C(=O)Oc1ccc(C(=O)Nc2ccc3[nH]ccc3c2)cc1)C(C)C [1063-16] | 4.36 | 4.52 | 100% | – | – | – | – | remaining activity at 100 µM (NR1/NR2B; [4]): 81%
CCN(CC)C(=O)Oc1ccc(C(=O)Nc2cc(C)cc(C)c2)cc1 [1063-17] | 5.10 | 4.74 | 79% | – | – | – | – | pIC50 (NR1/NR2B): 4.05
CCN(CC)C(=O)Oc1ccc(C(=O)Nc2cccc3c2CCCC3)cc1 [1063-18] | 4.70 | 4.64 | 95% | – | – | – | – | pIC50 (NR1/NR2B): 3.67
CCN(CC)C(=O)Oc1ccc(C(=O)Nc2ccc3c(c2)CCCC3)cc1 [1063-19] | 4.59 | 4.24 | 89% | – | – | – | – | remaining activity at 100 µM (NR1/NR2B; [4]): 74%
O=C(Nc1cccc2ccccc12)c1ccc(Oc2nc(-c3ccccc3)cs2)cc1 [1063-22] | – | – | – | 96% | 88% | 91% | 92% | –
O=C(Nc1cccc2ccccc12)c1ccc(Oc2nc3ccccc3s2)cc1 [1063-23] | – | – | – | 91% | 91% | 85% | 89% | –
CCN(CC)C(=O)Oc1cccc(C(=O)Nc2cccc3ccccc23)c1 [1063-24] | – | – | – | 84% | 84% | 95% | 93% | –
